Source: PubChem BioAssay AID248 (DTP/NCI, 2004)
Inconclusive results and toxic doses are left out. Cut-off read from the data, not from the text of the source: active = T/C of 150% or more; inactive = T/C below 125%.

Test system: L1210 leukemia ip in BDF1 mice, survival T/C
Experiment: NCI In Vivo Anticancer Drug Screen. Data for tumor model L1210 Leukemia (intraperitoneal) in B6D2F1 (BDF1) mice
Conditions: endpoint: mean survival time, higher = longer survival
Procedure, shortened: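 Each compound was tested against a transplantable tumor grown in mice. The endpoint was survival, with treated animals benchmarked against vehicle controls as a simple ratio.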

[1] = dose: 100.0 mg/kg/injection, schedule: Q01DX001 (ip), vehicle: carboxymethylcellulose (CMC)
[2] = dose: 200.0 mg/kg/injection, schedule: Q01DX001 (ip), vehicle: carboxymethylcellulose (CMC)
[3] = dose: 400.0 mg/kg/injection, schedule: Q01DX001 (ip), vehicle: carboxymethylcellulose (CMC)
[4] = dose: 25.0 mg/kg/injection, schedule: Q01DX009 (ip), vehicle: saline
[5] = dose: 100.0 mg/kg/injection, schedule: Q01DX009 (ip), vehicle: Klucel (hydroxypropylcellulose) (HPC)
[6] = dose: 100.0 mg/kg/injection, schedule: Q01DX009 (ip), vehicle: saline with Tween-80
[7] = dose: 100.0 mg/kg/injection, schedule: Q04DX003 (ip), vehicle: Klucel (hydroxypropylcellulose) (HPC)
[8] = dose: 200.0 mg/kg/injection, schedule: Q01DX009 (ip), vehicle: Klucel (hydroxypropylcellulose) (HPC)
[9] = dose: 200.0 mg/kg/injection, schedule: Q01DX009 (ip), vehicle: saline with Tween-80
[10] = dose: 400.0 mg/kg/injection, schedule: Q01DX009 (ip), vehicle: saline with Tween-80
[11] = dose: 400.0 mg/kg/injection, schedule: Q04DX003 (ip), vehicle: Klucel (hydroxypropylcellulose) (HPC)
[12] = dose: 200.0 mg/kg/injection, schedule: Q04DX003 (ip), vehicle: Klucel (hydroxypropylcellulose) (HPC)
[13] = dose: 100.0 mg/kg/injection, schedule: Q04DX003 (ip), vehicle: saline
[14] = dose: 200.0 mg/kg/injection, schedule: Q04DX003 (ip), vehicle: saline

Measured: T/C

C[n+]1ccsn1
inactive: [1] 95 % of control | [2] 93 % of control | [3] 95 % of control

CS(=O)(=O)Oc1ccccc1OS(C)(=O)=O
inactive: dose: 100.0 mg/kg/injection, schedule: Q04DX002 (ip), vehicle: saline with Tween-80 91 % of control | dose: 200.0 mg/kg/injection, schedule: Q04DX002 (ip), vehicle: saline with Tween-80 107 % of control

C=C1C(=O)OC2CC3(C)OC3C3OC3C3=CC(OC3=O)C12 (centres undefined)
inactive: dose: 5.0 mg/kg/injection, schedule: Q01DX001 (ip), vehicle: carboxymethylcellulose (CMC) 112 % of control

C[N+](C)(C)CCOC(=O)c1ccc(CBr)c(CBr)c1
inactive: dose: 6.25 mg/kg/injection, schedule: Q01DX009 (ip), vehicle: saline 97 % of control | dose: 6.25 mg/kg/injection, schedule: Q04DX003 (ip), vehicle: saline 96 % of control | dose: 12.5 mg/kg/injection, schedule: Q01DX009 (ip), vehicle: saline 99 % of control | dose: 12.5 mg/kg/injection, schedule: Q04DX003 (ip), vehicle: saline 96 % of control | [4] 104 % of control | dose: 25.0 mg/kg/injection, schedule: Q04DX003 (ip), vehicle: saline 98 % of control

Cc1c(Cl)cccc1N1C(=O)CC(Sc2ccccc2N)C1=O (centres undefined)
inactive: [5] 95 % of control | [6] 106 % of control | [7] 92 % of control | dose: 100.0 mg/kg/injection, schedule: Q04DX003 (ip), vehicle: saline with Tween-80 94 % of control | [8] 92 % of control | [9] 107 % of control | dose: 200.0 mg/kg/injection, schedule: Q04DX003 (ip), vehicle: saline with Tween-80 88 % of control | [10] 109 % of control | [11] 89 % of control | dose: 400.0 mg/kg/injection, schedule: Q04DX003 (ip), vehicle: saline with Tween-80 93 % of control

O=C(Nc1ccccc1)c1cc(Cl)ccn1
inactive: [1] 100 % of control | [2] 97 % of control | [3] 97 % of control

CC1CNC(=S)S1 (centres undefined)
inactive: [5] 105 % of control | [7] 107 % of control | [8] 100 % of control | [12] 102 % of control | [11] 102 % of control

COc1ccccc1OC(=O)Nc1cc([N+](=O)[O-])ccc1C
inactive: [6] 89 % of control | [9] 96 % of control | [10] 121 % of control

CCCCOC(=O)c1ccc(NC(=S)NCCc2ccccc2)cc1
inactive: [5] 103 % of control | [8] 98 % of control | dose: 400.0 mg/kg/injection, schedule: Q01DX009 (ip), vehicle: Klucel (hydroxypropylcellulose) (HPC) 95 % of control

O=C1c2ccccc2C2(c3ccccc3)C=NNC12c1ccccc1 (centres undefined)
inactive: dose: 100.0 mg/kg/injection, schedule: Q01DX001 (ip), vehicle: Klucel (hydroxypropylcellulose) (HPC) 103 % of control | [7] 106 % of control | dose: 200.0 mg/kg/injection, schedule: Q01DX001 (ip), vehicle: Klucel (hydroxypropylcellulose) (HPC) 98 % of control | [12] 97 % of control | dose: 400.0 mg/kg/injection, schedule: Q01DX001 (ip), vehicle: Klucel (hydroxypropylcellulose) (HPC) 95 % of control | [11] 103 % of control

NNc1ncnc2c(C3OC(CO)C(O)C3O)[nH]nc12 (centres undefined)
inactive: dose: 12.5 mg/kg/injection, schedule: Q01DX009 (ip), vehicle: Klucel (hydroxypropylcellulose) (HPC) 111 % of control | dose: 20.0 mg/kg/injection, schedule: Q01DX009 (ip), vehicle: water 107 % of control | dose: 25.0 mg/kg/injection, schedule: Q01DX005 (ip), vehicle: Klucel (hydroxypropylcellulose) (HPC) 118 % of control | dose: 30.0 mg/kg/injection, schedule: Q01DX009 (ip), vehicle: water 107 % of control | dose: 45.0 mg/kg/injection, schedule: Q01DX009 (ip), vehicle: water 112 % of control | dose: 50.0 mg/kg/injection, schedule: Q01DX005 (ip), vehicle: Klucel (hydroxypropylcellulose) (HPC) 124 % of control | dose: 50.0 mg/kg/injection, schedule: Q01DX005 (ip), vehicle: saline 118 % of control | dose: 50.0 mg/kg/injection, schedule: Q01DX009 (ip), vehicle: Klucel (hydroxypropylcellulose) (HPC) 113 % of control | dose: 67.0 mg/kg/injection, schedule: Q01DX009 (ip), vehicle: water 122 % of control | [5] 122 % of control | [13] 118 % of control | dose: 100.0 mg/kg/injection, schedule: Q08DX002 (ip), vehicle: saline 102 % of control | dose: 150.0 mg/kg/injection, schedule: Q01DX009 (ip), vehicle: saline 120 % of control | dose: 200.0 mg/kg/injection, schedule: Q01DX005 (ip), vehicle: Klucel (hydroxypropylcellulose) (HPC) 106 % of control | dose: 200.0 mg/kg/injection, schedule: Q01DX005 (ip), vehicle: saline 106 % of control | [14] 122 % of control | dose: 200.0 mg/kg/injection, schedule: Q08DX002 (ip), vehicle: saline 122 % of control | dose: 800.0 mg/kg/injection, schedule: Q08DX002 (ip), vehicle: saline 104 % of control

CCCOc1ccc(=S)[nH]n1
inactive: dose: 100.0 mg/kg/injection, schedule: Q01DX001 (ip), vehicle: saline 103 % of control | [13] 101 % of control | dose: 200.0 mg/kg/injection, schedule: Q01DX001 (ip), vehicle: saline 95 % of control | [14] 106 % of control | dose: 400.0 mg/kg/injection, schedule: Q01DX001 (ip), vehicle: saline 98 % of control | dose: 400.0 mg/kg/injection, schedule: Q04DX003 (ip), vehicle: saline 95 % of control

CN(N=O)C(=O)NCCNC(=O)N(C)N=O
inactive: dose: 150.0 mg/kg/injection, schedule: Q01DX Z (ip), vehicle: carboxymethylcellulose (CMC) 108 % of control

CCCC(=O)CC(C)=O.CCCC(=O)CC(C)=O.[Cu]
inactive: dose: 5.0 mg/kg/injection, schedule: Q04DX003 (ip), vehicle: Klucel (hydroxypropylcellulose) (HPC) 95 % of control | dose: 6.0 mg/kg/injection, schedule: Q01DX009 (ip), vehicle: Klucel (hydroxypropylcellulose) (HPC) 92 % of control | dose: 10.0 mg/kg/injection, schedule: Q04DX003 (ip), vehicle: Klucel (hydroxypropylcellulose) (HPC) 98 % of control | dose: 12.0 mg/kg/injection, schedule: Q01DX009 (ip), vehicle: Klucel (hydroxypropylcellulose) (HPC) 101 % of control | dose: 20.0 mg/kg/injection, schedule: Q04DX003 (ip), vehicle: Klucel (hydroxypropylcellulose) (HPC) 96 % of control | dose: 40.0 mg/kg/injection, schedule: Q04DX003 (ip), vehicle: Klucel (hydroxypropylcellulose) (HPC) 93 % of control

Cc1cc(N2CCC(N3CCCC3)CC2)nc(/N=C(\N)Nc2ccc(Cl)c(Cl)c2)n1
inactive: dose: 12.0 mg/kg/injection, schedule: Q01DX009 (ip), vehicle: saline 97 % of control | [4] 106 % of control | dose: 50.0 mg/kg/injection, schedule: Q01DX009 (ip), vehicle: saline 98 % of control

O=C(Nc1cccc2ccccc12)OCc1ccccc1
inactive: dose: 100.0 mg/kg/injection, schedule: Q04DX002 (ip), vehicle: Klucel (hydroxypropylcellulose) (HPC) 108 % of control | dose: 200.0 mg/kg/injection, schedule: Q04DX002 (ip), vehicle: Klucel (hydroxypropylcellulose) (HPC) 89 % of control | dose: 400.0 mg/kg/injection, schedule: Q04DX002 (ip), vehicle: Klucel (hydroxypropylcellulose) (HPC) 93 % of control
